Reference: publication PMC7066107 (Investigational New Drugs, 2019)
Entries after “also recorded” stand apart in the source; their conditions may differ.

Columns and labels:
[1] = tested on: IDO1; conditions: following oral administration; cited from earlier work
[2] = tested on: Japanese patients with advanced solid tumours
Method: The study consisted of two stages (Fig. 1).
Recruitment of patients to each dose level was sequential using the standard 3 + 3 study design. […] At each dose level, treatment was continued until disease progression, DLT or other adverse event (AE) that would hinder the patient’s participation in the study, or until the patient requested discontinuation from the study.
Safety, pharmacokinetics, efficacy, exploratory pharmacodynamics and genetic outcomes were assessed in this study. The safety outcomes were the incidence, type, severity and time of onset of DLTs, AEs and treatment-related AEs (TRAEs). […] In addition, the maximum tolerated dose (MTD) was determined on the basis of DLTs.
(§1) Safety endpoints were analysed in the safety population, which consisted of patients who received ≥1 dose of the study drug. Efficacy endpoints were analysed in the full analysis set, which consisted of patients who received ≥1 dose of the study drug and underwent ≥1 post-baseline efficacy assessment. A summary of AEs, TRAEs and DLTs by mapped term, appropriate thesaurus level and severity was provided for each cohort. Summary statistics, including mean, standard deviation, coefficient of variation, median, and minimum and maximum, were calculated for pharmacokinetic and pharmacodynamic parameters.
Adverse events that could be considered dose-limiting toxicities
Grade 4 neutropenia persisting for ≥5 days or requiring treatment with G-CSF
Grade 4 thrombocytopenia or grade 3 thrombocytopenia requiring platelet transfusion
Grade ≥3 non-hematologic toxicity (excluding transient electrolyte abnormalities) Abnormal
toxicity will be assessed as DLTs only if they meet the following criteria. Grade ≥3 laboratory
ALP: A grade ≥3 increase persisting for ≥3 days will be assessed as a DLT.
Diarrhoea, nausea, vomiting, skin toxicity: A grade ≥3 event persisting for ≥1 week

[3] = tested on: advanced solid tumours; assay: Efficacy by RECIST version 1.1 (best overall response, disease control, PFS); conditions: Stage 1
Method: The efficacy outcomes were the response rate, disease control rate, progression-free survival (PFS) and duration of response. Efficacy outcomes were assessed using the Response Evaluation Criteria in Solid Tumours (RECIST) version 1.1.
Efficacy endpoints were analysed in the full analysis set, which consisted of patients who received ≥1 dose of the study drug and underwent ≥1 post-baseline efficacy assessment.

[4] = Plasma pharmacokinetics of navoximod in phase I study; conditions: for Dose proportionality of AUC and Cmax: 200-1000 mg
Method: The efficacy outcomes were the response rate, disease control rate, progression-free survival (PFS) and duration of response. Efficacy outcomes were assessed using the Response Evaluation Criteria in Solid Tumours (RECIST) version 1.1. Plasma concentrations of kynurenine and tryptophan and their ratios and the presence of UGT1A1*6 and UGT1A1*28 polymorphisms were the exploratory outcomes of this study.
as §1
Schedule for blood sampling for pharmacokinetic assessments
Visit pharmacokinetics kynurenine/tryptophan
(time window) pharmacodynamics (time
Cycle 0 Day 1 5 min before dosing (−30 min) 5 min before dosing (−30 min)
30 min after dosing (±5 min) 30 min after dosing (±5 min)
1 hr after dosing (±5 min) 1 hr after dosing (±5 min)
2 hr after dosing (±5 min) 2 hr after dosing (±5 min)
4 hr after dosing (±10 min) 4 hr after dosing (±10 min)
6 hr after dosing (±30 min) 6 hr after dosing (±30 min)
8 hr after dosing (±30 min) 8 hr after dosing (±30 min)
12 hr after dosing (±30 min) 12 hr after dosing (±30 min)
Cycle 0 Day 2 24 hr after dosing on Cycle 0 Day 1 24 hr after dosing on Cycle 0 Day 1
Cycle 0 Day 3 48 hr after dosing on Cycle 0 Day 1 –
(±2 hr), before dosing on Cycle 1
Cycle 1 Day 8 5 min before dosing (−30 min) –
Cycle 2 Day 1 5 min before dosing (−30 min) 5 min before dosing (−30 min)
12 hr after first dose (±60 min), 12 hr after first dose (±60 min),
before second dose before second dose
Cycle 4 Day 1 5 min before dosing (−30 min) –
Cycle 9 Day 1 5 min before dosing (−30 min) –
Last observation Any time –
12 hr after dosing (±60 min) 12 hr after dosing (±60 min)
(±2 hr), before dosing on Cycle 1, Day

[5] = tested on: patients with advanced or recurrent solid tumours; conditions: cited from earlier work

In the case of O[C@H](C[C@H]1c2c(F)cccc2-c2cncn21)[C@H]1CC[C@H](O)CC1 [Navoximod], the “Reduction of plasma and tissue kynurenine concentrations” value [1] is given as “approximately 50%”, the “Maximum tolerated dose (MTD)” value ([2]; Stage 1, monotherapy up to 1000 mg BID) is given as “not reached” and the “Any TRAE, All grades” value ([2]; human, in vivo) is given as 6 n. For the same compound, the “Any TRAE, Grade ≥ 3” value ([2]; human, in vivo) was 2 n, the “Chromaturia, All grades” value ([2]; human, in vivo) was 5 n and the “Chromaturia, Grade ≥ 3” value ([2]; human, in vivo) was 0 n. For the same compound, the “Grade 4 or 5 TRAEs” value ([2]; human, in vivo) was “No grade 4 or 5 TRAEs were observed”, the Incidence of chromaturia ([2]; human, in vivo) was 55% and the “Maculopapular rash, All grades” value ([2]; human, in vivo) was 2 n. The “Maculopapular rash, Grade ≥ 3” value ([2]; human, in vivo) was 1 n, the “Patients with Grade ≥ 3 TRAEs” value ([2]; human, in vivo) was 20% and the “Patients with TRAE chromaturia, any grade” value ([2]; human, in vivo) was 50%. The “Patients with TRAE maculopapular rash, any grade” value ([2]; human, in vivo) was 20%, the “Patients with TRAEs” value ([2]; human, in vivo) was 60% and the “Symptomatic grade 3 or higher TRAE maculopapular rash” value ([2]; human, in vivo) was 5%. The “Complete response (CR) and partial response (PR)” value [3] was “not observed”, the “PFS, range” value [3] was 9 to 259 days and the “Best overall response progressive disease (PD)” value ([3]; all doses, n = 10) was “five”. The “Patients with stable disease” value ([3]; all doses, n = 10) was 50%, the “Best overall response progressive disease (PD)” value ([3]; navoximod 400 mg) was 3 n and the “Best overall response progressive disease (PD)” value ([3]; navoximod 600 mg) was 2 n. The “Dose-corrected navoximod exposure by UGT1A1 genotype” value ([4]; patients with UGT1A1 −/*28) was “higher”, the “Dose-corrected navoximod exposure by UGT1A1 genotype” value ([4]; patients with UGT1A1 −/−, −/*6 and *6/*6) was “similar” and the “Dose proportionality of AUC and Cmax” value ([4]; single oral dose) was “dose-proportional”. The “Dose proportionality of AUC and Cmax” value ([4]; single oral dose, listed as navoximod) was “linear pharmacokinetics; also recorded: changed dose-proportionally”, the “Time at which mean plasma concentration peaked” value ([4]; single oral dose, Stage 1 or Stage 2) was 15 to 60 min and the MTD ([5]; monotherapy 100-800 mg twice daily, 22 patients) was “not reached”. For the same compound, the “CRs or PRs” value ([5]; monotherapy) was “no CRs or PRs were observed”, the Half-life ([5]; monotherapy) was “approximately 12 h” and the Linearity of pharmacokinetics ([5]; monotherapy) was “linear pharmacokinetics”. The “Time to peak plasma concentration” value ([5]; monotherapy) was “approximately 60 min”, the “Decrease of plasma kynurenine levels” value ([5]; navoximod 400 mg, 600 mg or 800 mg, 2–4 h after administration) was 25–30% and the “Patients with Grade 3 or higher AEs” value ([5]; two patients of 22, lower gastrointestinal haemorrhage, diverticulitis) was 9%.
